Data taken from the supplement of paper PMC11208160.

experiment: recombinant UMI read abundance after kanamycin selection (control-corrected) (log10(CPM+1)); higher = more efficient recombination; extreme values may be limits of the assay; sequences stand for … in AGTGCAGAGAAAATCGGCCAGTTTTCTCTGCCTGCAGTCCGCATGCCGTGGGACCCCTTGGGTTCTAACCTGTTGCCTAGATTTATGCAGCGGACTGCCTTTCTCCCAAAGTGATAAACCGG…AGGTTGGTTTCACT; site = the 11-nt donor
Procedure, shortened: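 Sequenced counts of recombinant UMIs were turned into CPM, averaged across replicates and scaled with control-derived factors. The reported figure is log10(CPM+1). Those UMIs, each 12 nt long, tagged donor and donor-binding-loop pairs on a plasmid with a promoterless kanamycin gene, screened as a pool in Escherichia coli with IPTG (0.07 mM) plus kanamycin or without selection.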
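Further: IS621 bridge recombinase in Escherichia coli cells against a fixed T5 target plasmid.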

First: CCGTGAGCATGGACCGGTTTTCCCGGTAATCCGTATTTGTG (site CCGTGAGCTCA)
Second: CCGTGAGCATGGACCGGTTTTCCCGGTAATCCGTATTTGTG (site CCGTTAGCTCA)
The “recombinant UMI read abundance (log10)” value of the first is higher: 0.568 for the first, 0.00536 for the second.

“CCGTTAGCATGGACCGGTTTTCCCGGTAATCCGTATTTGTG (site ACGTTAGCTCA)” and “CCGTTAGCATGGACCGGTTTTCCCGGTAATCCGTATTTGTG (site CAGTTAGCTCA)” are within 0.2 log units of each other in “recombinant UMI read abundance (log10)” value: 0.0114 for the first, 0.00951 for the second.

First: CCGTTAGCATGGACCGGTTTTCCCGGTAATCCGTATTTGTG (site CCATTAGCTCA)
Second: CCGTTAGCATGGACCGGTTTTCCCGGTAATCCGTATTTGTG (site CCCTTAGCTCA)
The “recombinant UMI read abundance (log10)” value of the first is higher: 0.434 for the first, 0.0161 for the second.

“CCGTTAGCATGGACCGGTTTTCCCGGTAATCCGTATTTGTG (site CCGATAGCTCA)” and “CCGTTAGCATGGACCGGTTTTCCCGGTAATCCGTATTTGTG (site CCGCTAGCTCA)” are within 0.2 log units of each other in “recombinant UMI read abundance (log10)” value: 0.0175 for the first, 0.00432 for the second.

“CCGTTAGCATGGACCGGTTTTCCCGGTAATCCGTATTTGTG (site CCGGTAGCTCA)” and “CCGTTAGCATGGACCGGTTTTCCCGGTAATCCGTATTTGTG (site CCGTAAGCTCA)” are within 0.2 log units of each other in “recombinant UMI read abundance (log10)” value: 0.014 for the first, 0.00568 for the second.

“CCGTTAGCATGGACCGGTTTTCCCGGTAATCCGTATTTGTG (site CCGTCAGCTCA)” and “CCGTTAGCATGGACCGGTTTTCCCGGTAATCCGTATTTGTG (site CCGTGAGCTCA)” are within 0.2 log units of each other in “recombinant UMI read abundance (log10)” value: 0.0147 for the first, 0.0389 for the second.

“CCGTTAGCATGGACCGGTTTTCCCGGTAATCCGTATTTGTG (site CCGTTAACTCA)” and “CCGTTAGCATGGACCGGTTTTCCCGGTAATCCGTATTTGTG (site CCGTTACCTCA)” are within 0.2 log units of each other in “recombinant UMI read abundance (log10)” value: 0.0199 for the first, 0 for the second.

Compared with “CCGTTAGCATGGACCGGTTTTCCCGGTAATCCGTATTTGTG (site CCGTTAGCTAA)”, “CCGTTAGCATGGACCGGTTTTCCCGGTAATCCGTATTTGTG (site CCGTTAGCTCA)” is higher in “recombinant UMI read abundance (log10)” value: 0.0124 for the first, 0.386 for the second.

“CCGTTAGCATGGACCGGTTTTCCCGGTAATCCGTATTTGTG (site CCGTTAGCTCC)” and “CCGTTAGCATGGACCGGTTTTCCCGGTAATCCGTATTTGTG (site CCGTTAGCTCG)” are within 0.2 log units of each other in “recombinant UMI read abundance (log10)” value: 0.0262 for the first, 0 for the second.

“CCGTTAGCATGGACCGGTTTTCCCGGTAATCCGTATTTGTG (site CCGTTAGCTCT)” and “CCGTTAGCATGGACCGGTTTTCCCGGTAATCCGTATTTGTG (site CCGTTAGCTGA)” are the same in “recombinant UMI read abundance (log10)” value: 0 for the first, 0 for the second.

“CCGTTAGCATGGACCGGTTTTCCCGGTAATCCGTATTTGTG (site CCGTTAGCTTA)” and “CCGTTAGCATGGACCGGTTTTCCCGGTAATCCGTATTTGTG (site CCGTTATCTCA)” are the same in “recombinant UMI read abundance (log10)” value: 0 for the first, 0 for the second.

“CCGTTAGCATGGACCGGTTTTCCCGGTAATCCGTATTTGTG (site CCGTTCGCTCA)” and “CCGTTAGCATGGACCGGTTTTCCCGGTAATCCGTATTTGTG (site CCGTTGGCTCA)” are within 0.2 log units of each other in “recombinant UMI read abundance (log10)” value: 0 for the first, 0.0165 for the second.

“CCGTTAGCATGGACCGGTTTTCCCGGTAATCCGTATTTGTG (site CCGTTTGCTCA)” and “CCGTTAGCATGGACCGGTTTTCCCGGTAATCCGTATTTGTG (site CCTTTAGCTCA)” are within 0.2 log units of each other in “recombinant UMI read abundance (log10)” value: 0.00521 for the first, 0.015 for the second.

“CCGTTAGCATGGACCGGTTTTCCCGGTAATCCGTATTTGTG (site CGGTTAGCTCA)” and “CCGTTAGCATGGACCGGTTTTCCCGGTAATCCGTATTTGTG (site CTGTTAGCTCA)” are within 0.2 log units of each other in “recombinant UMI read abundance (log10)” value: 0.00954 for the first, 0.164 for the second.

“CCGTTAGCATGGACCGGTTTTCCCGGTAATCCGTATTTGTG (site GCGTTAGCTCA)” and “CCGTTAGCATGGACCGGTTTTCCCGGTAATCCGTATTTGTG (site TCGTTAGCTCA)” are within 0.2 log units of each other in “recombinant UMI read abundance (log10)” value: 0 for the first, 0.00762 for the second.

Compared with “CCGTTCGCATGGACCGGTTTTCCCGGTAATCCGTATTTGTA (site CCGTTCGCTTA)”, “CCGTTCTCATGGACCGGTTTTCCCGGTAATCCGTATTTGGG (site CCATTCTCTCC)” is lower in “recombinant UMI read abundance (log10)” value: 0.827 for the first, 0.00249 for the second.

“CCGTTCTCATGGACCGGTTTTCCCGGTAATCCGTATTTGGG (site CCCTTCTCTCC)” and “CCGTTCTCATGGACCGGTTTTCCCGGTAATCCGTATTTGGG (site CCGTTCTCTCC)” are the same in “recombinant UMI read abundance (log10)” value: 0 for the first, 0 for the second.

“CCGTTCTCATGGACCGGTTTTCCCGGTAATCCGTATTTGGG (site CCTTTCTCTCC)” and “CCGTTGACATGGACCGGTTTTCCCGGTAATCCGTATTTGCT (site CCGTTAACTAG)” are the same in “recombinant UMI read abundance (log10)” value: 0 for the first, 0 for the second.

First: CCGTTGACATGGACCGGTTTTCCCGGTAATCCGTATTTGCT (site CCGTTCACTAG)
Second: CCGTTGACATGGACCGGTTTTCCCGGTAATCCGTATTTGCT (site CCGTTGACTAG)
The “recombinant UMI read abundance (log10)” value of the first is lower: 0 for the first, 1.05 for the second.

“CCGTTGACATGGACCGGTTTTCCCGGTAATCCGTATTTGCT (site CCGTTTACTAG)” and “CCGTTTACATGGACCGGTTTTCCCGGTAATCCGTATTTGCC (site CCGTTTACTAG)” are the same in “recombinant UMI read abundance (log10)” value: 0 for the first, 0 for the second.

“CCGTTTACATGGACCGGTTTTCCCGGTAATCCGTATTTGCC (site CCGTTTACTCG)” and “CCGTTTACATGGACCGGTTTTCCCGGTAATCCGTATTTGCC (site CCGTTTACTGG)” are the same in “recombinant UMI read abundance (log10)” value: 0 for the first, 0 for the second.

“CCGTTTACATGGACCGGTTTTCCCGGTAATCCGTATTTGCC (site CCGTTTACTTG)” and “CCGTTTACATGGACCGGTTTTCCCGGTAATCCGTATTTGTT (site CCGTTTACTAA)” are within 0.2 log units of each other in “recombinant UMI read abundance (log10)” value: 0 for the first, 0.175 for the second.

“CCGTTTACATGGACCGGTTTTCCCGGTAATCCGTATTTGTT (site CCGTTTACTAC)” and “CCGTTTACATGGACCGGTTTTCCCGGTAATCCGTATTTGTT (site CCGTTTACTAG)” are the same in “recombinant UMI read abundance (log10)” value: 0 for the first, 0 for the second.

“CCGTTTACATGGACCGGTTTTCCCGGTAATCCGTATTTGTT (site CCGTTTACTAT)” and “CCGTTTGCATGGACCGGTTTTCCCGGTAATCCGTATTTGCT (site CCGTTTACTAG)” are the same in “recombinant UMI read abundance (log10)” value: 0 for the first, 0 for the second.

“CCGTTTGCATGGACCGGTTTTCCCGGTAATCCGTATTTGCT (site CCGTTTCCTAG)” and “CCGTTTGCATGGACCGGTTTTCCCGGTAATCCGTATTTGCT (site CCGTTTGCTAG)” are the same in “recombinant UMI read abundance (log10)” value: 0 for the first, 0 for the second.

Going from “CCGTTTGCATGGACCGGTTTTCCCGGTAATCCGTATTTGCT (site CCGTTTTCTAG)” to “CCGTTTGCATGGACCGGTTTTCCCGGTAATCCGTATTTGGT (site CCGTTTGCTAC)”, the “recombinant UMI read abundance (log10)” value rises from 0 to 0.48.

“CCTAAACCATGGACCGGTTTTCCCGGTAATCCGTATTTGAT (site CCTAAAACTAT)” and “CCTAAACCATGGACCGGTTTTCCCGGTAATCCGTATTTGAT (site CCTAAACCTAT)” are the same in “recombinant UMI read abundance (log10)” value: 0 for the first, 0 for the second.

“CCTAAACCATGGACCGGTTTTCCCGGTAATCCGTATTTGAT (site CCTAAAGCTAT)” and “CCTAAACCATGGACCGGTTTTCCCGGTAATCCGTATTTGAT (site CCTAAATCTAT)” are the same in “recombinant UMI read abundance (log10)” value: 0 for the first, 0 for the second.

“CCTAAAGCATGGACCGGTTTTCCCGGTAATCCGTATTTGAC (site CCTAAAGCTAT)” and “CCTAAAGCATGGACCGGTTTTCCCGGTAATCCGTATTTGAC (site CCTAAAGCTCT)” are within 0.2 log units of each other in “recombinant UMI read abundance (log10)” value: 0 for the first, 0.00302 for the second.

“CCTAAAGCATGGACCGGTTTTCCCGGTAATCCGTATTTGAC (site CCTAAAGCTGT)” and “CCTAAAGCATGGACCGGTTTTCCCGGTAATCCGTATTTGAC (site CCTAAAGCTTT)” are within 0.2 log units of each other in “recombinant UMI read abundance (log10)” value: 0 for the first, 0.0124 for the second.

“CCTAAATCATGGACCGGTTTTCCCGGTAATCCGTATTTGAT (site CCTAAAACTAT)” and “CCTAAATCATGGACCGGTTTTCCCGGTAATCCGTATTTGAT (site CCTAAACCTAT)” are the same in “recombinant UMI read abundance (log10)” value: 0 for the first, 0 for the second.

“CCTAAATCATGGACCGGTTTTCCCGGTAATCCGTATTTGAT (site CCTAAAGCTAT)” and “CCTAAATCATGGACCGGTTTTCCCGGTAATCCGTATTTGAT (site CCTAAATCTAT)” are within 0.2 log units of each other in “recombinant UMI read abundance (log10)” value: 0 for the first, 0.00669 for the second.

“CCTAACCCATGGACCGGTTTTCCCGGTAATCCGTATTTGAG (site CCTAACCCTCT)” and “CCTAACGCATGGACCGGTTTTCCCGGTAATCCGTATTTGCT (site CCTAACGCTAG)” are within 0.2 log units of each other in “recombinant UMI read abundance (log10)” value: 0.00788 for the first, 0 for the second.

“CCTAATACATGGACCGGTTTTCCCGGTAATCCGTATTTGCC (site CCTAATACTGA)” and “CCTAATACATGGACCGGTTTTCCCGGTAATCCGTATTTGCC (site CCTAATACTGC)” are the same in “recombinant UMI read abundance (log10)” value: 0 for the first, 0 for the second.
